Measured values taken from patent publication US8828942B2, “Means for treating synucleinopathies” (Affiris AG, priority 2009, dated 2014).
Entries after “also recorded” stand apart in the source; their conditions may differ.

Key:
[1] = system: monoclonal antibody 12-9-9; assay: In vitro binding assay (ELISA) with monoclonal antibody 12-9-9; design: species or system mouse; key to Binding: 0: no binding to 12-9-9 detectable in ELISA; 1: weak binding: binding of mimotope weaker compared to the minimal original sequence p5436; 2: strong binding: binding of mimotope similar to the minimal original sequence p5436; settings: for Binding: binding capacity to 12-9-9 in ELISA, peptide-BSA coated (1 μM), compared with p5436; for detection/binding by monoclonal antibody 12-9-9 in ELISA: result in words
Description: A monoclonal antibody derived from the fusion “AFFiRiS 6”: Balb/c mice (Charles River) were immunized with original alpha-synuclein epitope LGKNEEGAPQ-C (SEQ ID NO:3) coupled to BTG (bovine thyroglobuline) and CFA (complete Freund's adjuvant; first injection) as well as IFA (incomplete Freund's adjuvant; 3 booster injections) as adjuvant. LGKNEEGAPQ-peptide-specific (SEQ ID NO: 203) antibody-producing hybridomas are detected by ELISA (LGKNEEGAPQC-peptide-coated (SEQ ID NO: 3)ELISA plates). Human alpha-synuclein (recombinant protein, p4446) is used as positive control peptide: hybridomas recognizing the recombinant protein immobilized on ELISA plates are included because they are binding both peptide and full length alpha-synuclein specifically. […] The Hybridoma clone (12-9-9; IgG1, kappa) was analysed for specific detection of the natural human alpha-synuclein epitope LGKNEEGAPQ. (SEQ ID NO: 203). 12-9-9 recognizes the injected epitope as well as full length alpha-synuclein protein (recombinant protein; obtained from rPeptide, Bogart, Ga., USA) in ELISA (see FIG. 2). […] Thus the minimal required epitope for binding has been defined as KNEEGAP (SEQ ID NO: 139).
Peptides derived from Phage Display as well as N-terminally truncated variants thereof were coupled to BSA and bound to ELISA plates (1 μM) and subsequently incubated with the monoclonal antibody that was used for the screening procedure to analyse binding capacity of identified peptides (see FIG. 4).

[2] = system: monoclonal antibody 12-9-9; assay: In vitro inhibition assay (ELISA); assay type: binding, mouse; design: key: 0: no competition of 12-9-9 detectable in ELISA; 1: weak competition: competition of mimotope weaker compared to the minimal original sequence p5436; 2: strong competition: competition of mimotope similar to the minimal original sequence p5436; settings: competition capacity in ELISA, peptide 400 μg/ml to 3 μg/ml, plates coated with p5436 and p4446
Method: Different amounts of peptides (concentrations ranging from 400 μg/ml to 3 μg/ml (serial dilutions), derived from Phage Display were incubated with the monoclonal antibody that was used for the screening procedure. Peptides diminishing subsequent binding of the antibody to the original human alpha-synuclein epitope (p5436) and the human alpha-synuclein protein (p4446) coated on ELISA plates were considered as inhibiting in this assay.

Substance	Binding [1]	detection/binding by monoclonal antibody 12-9-9 in ELISA [1]	also measured
ANEEGAPC [p5437, mimotope]	2	–	–
Alpha-synuclein [p4446]	2	detected; also recorded: retained full binding capacities	detection/binding by monoclonal antibody 12-9-9 in ELISA ([1]; listed as Alpha-Synuclein): detected similarly; detection/binding by monoclonal antibody 12-9-9 in ELISA ([1]; listed as alpha-synuclein protein): recognizes
Beta-Synuclein [p4447]	–	not detected	detection/binding by monoclonal antibody 12-9-9 in ELISA ([1]; listed as beta-synuclein protein): does not detect
CKNEEGAP [p5435, reference compound]	2	–	Competition [2]: 1
EEGAPQC [p5400, reference compound]	–	lost binding	–
EGAPQC [p5401, reference compound]	–	lost binding	–
GKNEEGAPQC [p5397, reference compound]	2	retained full binding capacities	Competition [2]: 2
HNEEGAPC [p5444, mimotope]	2	detected much weaker than the human epitope	–
KAEEGAPC [p5438, mimotope]	1	–	–
KNDDGAPC [p5449, mimotope]	2	–	Competition [2]: 1
KNEAGAPC [p5440, mimotope]	–	not detected	–
KNEDGAPC [p5446, mimotope]	2	–	Competition [2]: 1
KNEEGAPQC [p5398, reference compound]	2	retained full binding capacities	Competition [2]: 2
KQEEGAPC [p5447, mimotope]	2	–	–
KSEEGAPC [p5448, mimotope]	2	–	Competition [2]: 1
LGKNEC [p5406, reference compound]	–	lost binding	–
LGKNEEC [p5405, reference compound]	–	lost binding	–
LGKNEEGAC [p5403, reference compound]	–	lost binding	–
LGKNEEGAPQC [p4453, reference compound]	2	detected; also recorded: retained full binding capacities	–
LGKNEEGC [p5404, reference compound]	–	lost binding	–
NEEGAPQC [p5399, reference compound]	–	lost binding	–
TPSAKGEC [p5557, mimotope]	–	–	Competition [2]: 1

More lines, main results first:

Binding [1]	detection/binding by monoclonal antibody 12-9-9 in ELISA [1]	Substance	also measured
2	–	ANDEGAPC [p5591, mimotope]	–
1	–	ASEEGAPC [p5594, mimotope]	–
2	–	CTPSWKGE [p5560, mimotope]	–
1	–	HNAEGAPC [p5598, mimotope]	–
2	–	HNDEGAPC [p5596, mimotope]	–
1	–	HSAEGAPC [p5604, mimotope]	–
1	–	HSDEGAPC [p5608, mimotope]	–
1	–	HSEEGAPC [p5593, mimotope]	–
2	–	KSAEGAPC [p5599, mimotope]	–
2	–	KSEDGAPC [p5601, mimotope]	–
1	–	QASFAMEC [p5547, mimotope]	–
1	–	QASSKLDC [p5549, mimotope]	–
2	–	RNEDGAPC [p5588, mimotope]	Competition [2]: 1
2	–	RQDDGAPC [p5610, mimotope]	–
2	–	RQDEGAPC [p5602, mimotope]	Competition [2]: 1
2	–	RQEEGAPC [p5589, mimotope]	–
2	–	RSAEGAPC [p5605, mimotope]	–
2	–	RSDEGAPC [p5606, mimotope]	–
2	–	RSEDGAPC [p5607, mimotope]	–
1	–	TPAWKGEC [p5551, mimotope]	–
2	–	TPSWAGEC [p5558, mimotope]	–
